Experiment [1] deals with T1, ERα (Homo sapiens, UniProt P03372).
T1 sequence (P03372 1-595): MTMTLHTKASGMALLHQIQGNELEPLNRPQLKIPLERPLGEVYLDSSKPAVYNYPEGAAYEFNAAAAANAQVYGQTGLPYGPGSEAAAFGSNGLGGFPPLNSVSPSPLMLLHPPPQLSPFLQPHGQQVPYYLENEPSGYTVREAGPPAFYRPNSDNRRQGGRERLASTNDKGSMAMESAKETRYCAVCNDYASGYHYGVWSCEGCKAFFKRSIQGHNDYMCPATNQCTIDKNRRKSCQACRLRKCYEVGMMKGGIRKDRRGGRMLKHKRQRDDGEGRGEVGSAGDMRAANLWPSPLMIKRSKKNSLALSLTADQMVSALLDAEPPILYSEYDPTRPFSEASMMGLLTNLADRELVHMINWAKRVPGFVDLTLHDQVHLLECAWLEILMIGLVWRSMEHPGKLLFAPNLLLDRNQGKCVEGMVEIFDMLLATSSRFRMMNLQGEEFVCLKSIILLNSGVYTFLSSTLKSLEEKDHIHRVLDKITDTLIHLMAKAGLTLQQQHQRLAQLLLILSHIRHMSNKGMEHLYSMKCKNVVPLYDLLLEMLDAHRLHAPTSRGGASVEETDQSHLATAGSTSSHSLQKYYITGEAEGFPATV
Put plainly: competitive radiometric binding assay, ERα.

The target in experiment [2] is T1, ERα. The conditions noted are these: cited from earlier work.
For experiment [3], the target named is T1, ERα. The conditions noted are these: cited from earlier work. This is another data set of the same source.
The target of experiment [4] is T1, ERα. Briefly: estrogen-responsive reporter gene cotransfection assay in HEC-1 cells, ERα. A general note: Reporter assays use an easily measured gene product as a stand-in for the process of interest.

As for `Cc1c(-c2ccc(O)cc2)nn(-c2ccc(O)cc2)c1-c1ccc(/C=C/C(=O)N2CCCCC2)cc1` [compound 2], the “binding (in words)” value on ERα [1] (compared with MPP and 1) is recorded as “markedly lower”.

Turning to `CCCc1c(-c2ccc(O)cc2)nn(-c2ccc(O)cc2)c1-c1ccc(O)cc1` [PPT, propyl-pyrazole-triol], the “agonist potency on ERα versus ERβ” value at ERα [2] is “ca. 1000 fold”. Moreover, the “affinity on ERα versus ERβ” value at ERα [3] is recorded as “ca. 1000 fold”.

`Cc1c(-c2ccc(O)cc2)nn(-c2ccc(O)cc2)c1-c1ccc(CCCN2CCCCC2)cc1` [compound 1]: the “ERα partial agonist activity” value at ERα [4] is “lacks”. For the same molecule, at ERα [1], the “ERα selectivity relative to that of the triol agonist MPT” value is given as “about 2.3 fold”.

In the case of `Cc1c(-c2ccc(O)cc2)nn(-c2ccc(O)cc2)c1-c1ccc(OCCN2CCCCC2)cc1` [MPP, Methyl-piperidino-pyrazole], the “ERα partial agonist activity” value on ERα [4] is on record as “residual, low ERα partial agonist activity”.
